From patent publication US5079237A, “Inclusion complex of nicardipine or its hydrochloride with beta-cyclodextrin and a sustained release pharmaceutical preparation containing the same” (priority 1988, dated 1992)
Where a name gives a salt, the structure may show the parent alone.

Assays:
[1] = cited from earlier work
[2] = known from DE patent 24 07 115; cited from earlier work
[3] = Solubility in water of nicardipine (hydrochloride), complexed and non-complexed (Example 3); format: physicochemical; settings: room temperature, saturated solution
Method: Solubility in water Comparative solubility of nicardipine and its hydrochloride resp. alone and of its inclusion complex with beta-cyclodextrin. The concentrations of the dissolved nicardipine and its hydrochloride resp. at room temperature were determined in clear filtrates of the saturated solutions by liquid chromatography using the external standard method.

[4] = Dissolution rate in artificial biological fluids, Paddle Method, USP XXI (Example 5); format: physicochemical; settings: for % dissolution: 37° C., mean of three tests
Method: Dissolution rates of the complexed and the non-complexed nicardipine and its hydrochloride
40 mg of nicardipine hydrochloride or the equivalent amount of […] of the inclusion complex of nicardipine with beta-cyclodextrin were used.
The dissolution tests were performed in artificial gastric juice of pH 1.2 and in artificial intestinal juices of pH 6.0, 6.5 and 7.4 at the temperature of 37° C.±0.5° C. The volume of the artificial biological fluids was 1000 ml. The rotation speed of the paddle mixer was 100 rpm. The quantities of the dissolved nicardipine hydrochloride in the test samples were determined spectrophotometrically (λmax =240 nm).

mice = assay: Acute toxicity (LD50) in mice after p.o. administration (Example 6); format: in vivo; settings: mice, p.o.; for LD50 after 15 days: Litchfield-Wilcoxon, 21600 min
Method: (§1) In toxicological tests acute toxicities (LD50) of nicardipine hydrochloride and of its inclusion complex with beta-cyclodextrin were determined in mice and rats. The complex contained 26.8% of nicardipine hydrochloride.
(§2) Albino laboratory mice weighing 18 to 24 g and rats weighing 180 to 240 g of both sexes were used. Nicardipine hydrochloride was administered in the following doses:
(§3) The volume of the administered suspension was in mice 0.2 to 0.4 ml/20 g of body weight and in rats 0.8 to 2.4 ml/200 g of body weight.
(§4) The inclusion complex of nicardipine hydrochloride with beta-cyclodextrin was administered in the following doses:
(§5) mice: 18500 mg/kg of body weight, corresponding to
(§6) 4958 mg of nicardipine/kg of body weight;
(§7) The volume of the administered suspension was in mice 0.6 ml/20 g of body weight and in rats 1.2 to 4.4 ml/200 g of body weight. The animals were left without food for 18 hours before the administration. After the administration the animals were put under observation and the symptoms of poisoning or behaviour changes were recorded for another 15 days. During the tests the animals were given food and water ad libitum.
(§8) The results were statistically evaluated according to the Litchfield-Wilcoxon method (J. Pharmacol. Exp. Therap. 96, 99 (1949)).

[5] = as above; format: in vivo; settings: mouse, in vivo, po; for mortality at 24 h: read-out: % of perished animals after 24 hrs; for mortality at 360 h: read-out: % of perished animals after 15 days; for LD50 at 360 h: mice, p.o., Litchfield-Wilcoxon, read-out: LD50 after 15 days
Method: as §1, §2, §3, §4, §5, §6, §7, §8

[6] = Differential scanning calorimetry: thermal stability (Example 4); format: physicochemical; settings: DSC
Method: Nicardipine hydrochloride melts at 160° C., its thermal decomposition beginning at about 200° C. Beta-cyclodextrin contains combined water, which begins to separate off the sample already at about 40° C. The dehydratation of beta-cyclodextrin is completed at about 100° C. Anhydrous beta-cyclodextrin is stable up to 270° C., when thermal decomposition starts, which becomes intensive at 300° C. The behaviour of the inclusion complex of nicardipine hydrochloride with beta-cyclodextrin at the thermoanalytical assay is quite different. After the initial slight loss of weight at temperatures below 150° C., which can be attributed to the adsorbed moisture, the substance is stable up to about 220° C, when thermal decomposition sets in. […] The DSC scans of nicardipine hydrochloride, beta-cyclodextrin, the physical mixture of nicardipine hydrochloride and beta-cyclodextrin and of the inclusion complex of nicardipine hydrochloride with beta-cyclodextrin clearly indicate the formation of the inclusion complex of nicardipine hydrochloride with beta-cyclodextrin. Thus, the differential scanning calorimetry measurements are in accordance with the powder X-ray diffraction patterns.

rats = assay: Acute toxicity (LD50) in rats after p.o. administration (Example 6); format: in vivo; settings: rats, p.o.; for LD50 after 15 days: Litchfield-Wilcoxon, 21600 min
Method: as §1, §2, §3, §4
(§9) rats: 5000 mg/kg of body weight, corresponding to
(§10) 1340 mg of nicardipine/kg of body weight,
(§11) 11100 mg/kg of body weight, corresponding to
(§12) 2975 mg of nicardipine/kg of body weight,
(§13) 18500 mg/kg of body weight, corresponding to
(§14) 4958 mg of nicardipine/kg of body weight.
as §7, §8

[7] = as above; format: in vivo; settings: rat, in vivo, po; for mortality at 24 h: read-out: % of perished animals after 24 hrs; for mortality at 360 h: read-out: % of perished animals after 15 days; for LD50 at 360 h: rats, p.o., Litchfield-Wilcoxon, read-out: LD50 after 15 days
Method: as §1, §2, §3, §4, §9, §10, §11, §12, §13, §14, §7, §8

[8] = 1500 mg/kg, mice F, 1500 mg/kg p.o.
[9] = 1500 mg/kg, mice M, 1500 mg/kg p.o.
[10] = 3000 mg/kg, mice F, 3000 mg/kg p.o.
[11] = 3000 mg/kg, mice M, 3000 mg/kg p.o.
[12] = 4000 mg/kg, mice F, 4000 mg/kg p.o.
[13] = 5000 mg/kg, mice F, 5000 mg/kg p.o.
[14] = 5000 mg/kg, mice M, 5000 mg/kg p.o.
[15] = 6000 mg/kg, mice F, 6000 mg/kg p.o.
[16] = 6000 mg/kg, mice M, 6000 mg/kg p.o.
[17] = 2000 mg/kg, rats M, 2000 mg/kg p.o.
[18] = 2500 mg/kg, rats M, 2500 mg/kg p.o.
[19] = 3000 mg/kg, rats F, 3000 mg/kg p.o.
[20] = 3500 mg/kg, rats M, 3500 mg/kg p.o.
[21] = 4000 mg/kg, rats F, 4000 mg/kg p.o.
[22] = 5000 mg/kg, rats F, 5000 mg/kg p.o.
[23] = 5000 mg/kg, rats M, 5000 mg/kg p.o.
[24] = 6000 mg/kg, rats F, 6000 mg/kg p.o.

Compound: COC(=O)C1=C(C)NC(C)=C(C(=O)OCCN(C)Cc2ccccc2)C1c1cccc([N+](=O)[O-])c1 (stereo not shown) [nicardipine, 2-(N-benzyl-N-methylamino)-ethyl methyl 2,6-dimethyl-4-(m-nitrophenyl)-1,4-dihydropyridine-3,5-dicarboxylate]
- solubility in biological fluids ([1]; pH of 5 to 8): poor solubility
- water solubility ([1]; water): unsatisfactory
- toxicity [2]: low toxicity

Compound: COC(=O)C1=C(C)NC(C)=C(C(=O)OCCN(C)Cc2ccccc2)C1c1cccc([N+](=O)[O-])c1 (stereo not shown) [nicardipine hydrochloride]
- solubility [3]: 1500 µg/mL
- dissolution, in words ([4]; gastric juice): dissolves quickly and completely
- % dissolution ([4]; gastric juice, pH 1.2, 10 min): 93.5%
- % dissolution ([4]; gastric juice, pH 1.2, 30 min): 100.2%
- % dissolution ([4]; intestinal juice, pH 6.0, 10 min): 50.2%
- % dissolution ([4]; intestinal juice, pH 6.0, 30 min): 58.7%
- % dissolution ([4]; intestinal juice, pH 6.5, 10 min): 35.5%
- % dissolution ([4]; intestinal juice, pH 6.5, 30 min): 39.0%
- % dissolution ([4]; intestinal juice, pH 7.4, 10 min): 1.0%
- % dissolution ([4]; intestinal juice, pH 7.4, 30 min): 1.3%
- LD50 after 15 days (mice; F): 3639 (2637-5022) mg/kg
- LD50 after 15 days (mice; M): 3756 (2815-5012) mg/kg
- recovery of animals (mice): recovered after 24 hours
- symptoms of poisoning (mice): dyspnoea and paresis
- mortality at 24 h [5, 8]: 20%
- mortality at 360 h [5, 8]: 20%
- mortality at 24 h [5, 9]: 0%
- mortality at 360 h [5, 9]: 0%
- mortality at 24 h [5, 10]: 40%
- mortality at 360 h [5, 10]: 40%
- mortality at 24 h [5, 11]: 30%
- mortality at 360 h [5, 11]: 40%
- mortality at 24 h [5, 12]: 30%
- mortality at 360 h [5, 12]: 50%
- mortality at 24 h [5, 13]: 40%
- mortality at 360 h [5, 13]: 70%
- mortality at 24 h [5, 14]: 40%
- mortality at 360 h [5, 14]: 70%
- mortality at 24 h [5, 15]: 90%
- mortality at 360 h [5, 15]: 90%
- mortality at 24 h [5, 16]: 90%
- mortality at 360 h [5, 16]: 100%
- LD50 at 360 h ([5]; F): 3640 mg/kg
- LD50 at 360 h ([5]; M): 3760 mg/kg
- onset of thermal decomposition (stable up to) [6]: about 200 °C
- solubility at higher pH values ([1]; higher pH values): very poor
- solubility at low pH values ([1]; low pH values): good
- LD50 after 15 days (rats; F): 4791 (4206-5458) mg/kg
- LD50 after 15 days (rats; M): 2900 (1635-5143) mg/kg
- recovery of animals (rats): recovered after 24 hours
- symptoms of poisoning (rats): dyspnoea and paresis
- mortality at 24 h [7, 17]: 40%
- mortality at 360 h [7, 17]: 40%
- mortality at 24 h [7, 18]: 40%
- mortality at 360 h [7, 18]: 40%
- mortality at 24 h [7, 19]: 0%
- mortality at 360 h [7, 19]: 0%
- mortality at 24 h [7, 20]: 60%
- mortality at 360 h [7, 20]: 60%
- mortality at 24 h [7, 21]: 10%
- mortality at 360 h [7, 21]: 20%
- mortality at 24 h [7, 22]: 44.4%
- mortality at 360 h [7, 22]: 66.6%
- mortality at 24 h [7, 23]: 80%
- mortality at 360 h [7, 23]: 80%
- mortality at 24 h [7, 24]: 80%
- mortality at 360 h [7, 24]: 80%
- LD50 at 360 h ([7]; F): 4790 mg/kg
- LD50 at 360 h ([7]; M): 2900 mg/kg

Compound: OC[C@H]1O[C@@H]2O[C@H]3[C@H](O)[C@@H](O)[C@@H](O[C@H]4[C@H](O)[C@@H](O)[C@@H](O[C@H]5[C@H](O)[C@@H](O)[C@@H](O[C@H]6[C@H](O)[C@@H](O)[C@@H](O[C@H]7[C@H](O)[C@@H](O)[C@@H](O[C@H]8[C@H](O)[C@@H](O)[C@@H](O[C@H]1[C@H](O)[C@H]2O)O[C@@H]8CO)O[C@@H]7CO)O[C@@H]6CO)O[C@@H]5CO)O[C@@H]4CO)O[C@@H]3CO [beta-cyclodextrin]
- onset of thermal decomposition (stable up to) [6]: 270 °C
- temperature at which thermal decomposition becomes intensive ([6]; anhydrous): 300 °C
